ChEMBL document CHEMBL3596112, “Sulfonium ions as inhibitors of the mycobacterial galactofuranosyltransferase GlfT2” (Medchemcomm, 2014)
The source made the active and inactive calls. The calls are words filed in the database; no cut-off is given here.

Each molecule was assayed against T1, Galactofuranosyltransferase GlfT2 (Mycobacterium tuberculosis) (UniProt O53585) (assay: Inhibition of Mycobacterium tuberculosis recombinant GlfT2 using beta-D-Galf-(1-5)-beta-D-Galf-(1-6)-beta-D-Galf-octyl as acceptor and UDP-Galf as donor substrate at 4 mM by coupled spectrophotometric assay).
T1 sequence (whole entry): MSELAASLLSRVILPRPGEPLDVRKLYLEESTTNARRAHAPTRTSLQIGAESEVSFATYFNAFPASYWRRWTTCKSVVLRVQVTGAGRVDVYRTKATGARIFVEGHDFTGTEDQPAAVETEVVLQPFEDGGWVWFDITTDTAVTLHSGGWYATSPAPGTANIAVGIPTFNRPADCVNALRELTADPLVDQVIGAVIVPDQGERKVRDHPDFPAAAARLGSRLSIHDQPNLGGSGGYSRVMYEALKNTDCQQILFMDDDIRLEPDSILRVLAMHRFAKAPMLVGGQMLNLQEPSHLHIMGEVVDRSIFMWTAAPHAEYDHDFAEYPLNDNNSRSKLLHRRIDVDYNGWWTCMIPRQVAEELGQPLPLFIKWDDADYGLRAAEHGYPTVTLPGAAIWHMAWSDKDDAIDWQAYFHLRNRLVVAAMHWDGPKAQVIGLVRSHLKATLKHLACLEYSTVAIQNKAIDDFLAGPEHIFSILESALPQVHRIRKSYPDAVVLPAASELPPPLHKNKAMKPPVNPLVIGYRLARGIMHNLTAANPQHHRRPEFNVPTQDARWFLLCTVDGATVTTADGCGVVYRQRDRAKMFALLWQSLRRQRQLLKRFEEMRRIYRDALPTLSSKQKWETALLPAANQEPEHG

Structure (SMILES) | inhibition
CCC[S+]1C[C@H]([C@H](O)CO)[C@H](O)C1 (some centres undefined) | inactive
OC[C@@H](O)[C@H]1C[S+](CC2CCCCC2)C[C@H]1O (some centres undefined) | inactive
OCCC[S+]1C[C@H]([C@H](O)CO)[C@H](O)C1 (some centres undefined) | inactive
CCCCCCCC[S+]1C[C@H]([C@H](O)CO)[C@H](O)C1 (some centres undefined) | inactive
OC[C@@H](O)[C@H]1C[S+](Cc2ccccc2)C[C@H]1O (some centres undefined) | inactive
OC[C@@H](O)[C@H]1C[S+](CCc2ccccc2)C[C@H]1O (some centres undefined) | inactive
COCCCCCCCC[S+]1C[C@H]([C@H](O)CO)[C@H](O)C1 (some centres undefined) | inactive
O=c1ccn([C@@H]2O[C@H](COCCC[S+]3C[C@H]([C@H](O)CO)[C@H](O)C3)[C@@H](O)[C@H]2O)c(=O)[nH]1 (some centres undefined) | inactive
CC(C)C[S+]1C[C@H]([C@H](O)CO)[C@H](O)C1 (some centres undefined) | inactive
O=[N+]([O-])c1ccc(C[S+]2C[C@H]([C@H](O)CO)[C@H](O)C2)cc1 (some centres undefined) | inactive
COCC[S+]1C[C@H]([C@H](O)CO)[C@H](O)C1 (some centres undefined) | inactive
OCCCCCCCC[S+]1C[C@H]([C@H](O)CO)[C@H](O)C1 (some centres undefined) | inactive
O=c1ccn([C@@H]2O[C@H](COCCCC[S+]3C[C@H]([C@H](O)CO)[C@H](O)C3)[C@@H](O)[C@H]2O)c(=O)[nH]1 (some centres undefined) | inactive
OCCCCCCCCCCCC[S+]1C[C@H]([C@H](O)CO)[C@H](O)C1 (some centres undefined) | 60%
